Tests used:
[1] = tested on: SOX2 and CD44 expression in GBO; assay: IHC of GSC markers SOX2 and CD44 in GBO, fluorescence intensity by CTCF; type: cell-based; conditions: GBO with vs without ROCKi
Protocol: To further examine whether ROCKi maintained GSC stemness, the expression of GSC markers, SOX2 and CD44, were analyzed (FIG. 6B).
where A is the two-dimensional projected area, and p is perimeter. Images were acquired with 12-bit depth, and the raw files were analyzed using NIS-Elements Viewer (Nikon) and ImageJ (NIH). Fluorescence intensity was calculated by the corrected total cell fluorescence (CTCF).
Immunohistochemistry (IHC): GBOs were fixed using 4% paraformaldehyde (Alfa Acsar, J61899AK) overnight and dehydrated using ethanol followed by xylene. Dehydrated GBOs were embedded in paraffin. Paraffin-embedded GBOs were sectioned to 5 to 10 μm thickness. Deparaffinization was done by xylene followed by ethanol. Sectioned GBOs were rehydrated with water. 10 mM sodium citrate buffer with […] was formulated for antigen retrieval and adjusted to pH 6.0. Antigen retrieval was performed at 95° C. for ten minutes. Sectioned GBOs were stained with primary antibodies: CD133, SOX2, CD44, NOTCH1, DLL1, HIF-1α, CD31, CD34, CD144, CD146, α-SMA, NG2, GFAP, Map2, S100B, VEGFR, ZO1, and POU3f2, followed by secondary staining. Cell nuclei were counter stained by Hoechst 33342 (Invitrogen, H1399). Stained GBOs were mounted using ProLong Glass Antifade Mountant with NucBlue (Invitrogen, P36981) and imaged by Nikon C2 Laser Scanning Confocal Microscope.

U251 = U251 inoculated as single cells, BR2 bioreactor, 60 and 120 rpm, 5 days of culture, with vs without ROCKi
Protocol: Next, the effects of Rho-associated protein kinase inhibitor (ROCKi) Y-27632 on different bioreactor culture conditions were tested. […] To verify the effects, U251 was inoculated as single cells with or without ROCKi. […] To test whether low cell proliferation is a result of apoptosis, live and dead cells were stained.

GBO (U251) = assay: Live and dead cell staining of GBO; type: cell-based; conditions: GBO in bioreactor, live and dead cells stained
From the text: Live and Dead Cell Analysis: Cells were stained with Live and Dead Cell Kit according to manufacturer's protocol (Abcam, ab115347). Sample images were acquired and analyzed using Nikon C2 Laser Scanning Confocal Microscope.

With `C[C@@H](N)[C@H]1CC[C@H](C(=O)Nc2ccncc2)CC1` [ROCKi, Y-27632] the “expression levels of GSC markers SOX2 and CD44” value [1] was “not significantly different”, the cell proliferation (U251) was “inhibited cell proliferation” and the apoptosis (GBO (U251)) was “did not induce apoptosis”.

— patent publication US20250019665A1, “SCALABLE BIOMANUFACTURING OF TUMOR ORGANOIDS” (The Board of Trustees of The University of Alabama, priority 2023, published 2025)
